From patent US7122307B2, “High throughput biological heart rate monitor that is molecularly determined” (The Trustees of Columbia University in the City of New York, priority 2001, dated 2006)

Tests used:
[1] = system: HCN2 over-expressing cell culture; assay: Spontaneous rate (action potential recording) of AdHCN2 infected culture during drug superfusion; format: cell-based, rat; conditions: for spontaneous rate during drug exposure: AdHCN2 infected culture, same culture during superfusion with drug, control records: 48 (isoproterenol), 54 (carbachol), 96 (ZD-7288) beats/min; for effect on heart rate of the culture (in words): HCN2 over-expressing cell culture
Source text: Adult rats were anesthetized with ketamine-xylazine before cardiectomy, and neonatal rats decapitated, in accordance with the Institutional Animal Care and Use Committee protocols of Columbia University. For preparing cell cultures of newborn ventricles, a standard trypsin dissociation method was employed (21). The cells were preplated to reduce fibroblast proliferation, cultured initially in serum-containing medium (except when being transfected with plasmids as described below) and then switched to a serum free medium (SFM) after 24 hours. Action potential studies were conducted on 4 day old monolayer cultures plated directly onto fibronectin coated 9×22 mm glass coverslips. For voltage clamp experiments, 4–6 day old monolayer cultures were resuspended by brief (2–3 min) exposure to 0.25% trypsin, then the cells replated onto fibronectin-coated coverslips and studied within 2–8 hours.
For adult rat ventricular myocytes, AdHCN2 infection was carried out 2–3 hours after the isolated cells were plated onto coverslips. For neonatal cells, the infection was done on the monolayer culture 1–3 days after plating. In either case, the culture medium was removed from the dishes (35-mm) and the inoculum of 0.2–0.3 ml/dish was added containing AdHCN2. The value of m.o.i. (multiplicity of infection—the ratio of viral units to cells) was 15–100. The inoculum was dispersed over the cells every 20 min by gently “tilting” the dishes so that the cells were evenly exposed to the viral particles. The dishes were kept at 37° C. in a CO2 incubator during the adsorption period of two hours, then the inoculum was discarded and the dishes were washed and refilled with the appropriate culture medium. The dishes remained in the incubator for 24–48 hours before electrophysiological experiments were conducted. In some experiments, an adenoviral construct for GFP (AdGFP) was employed.
The whole-cell voltage clamp technique was employed to record native If or expressed IHCN2 or IHCN4. Action potentials were recorded in current clamp mode, again using a whole cell patch electrode/Experiments were carried out on cells supervised at 35° C. Extracellular solution contained (mmol/L): NaCl, 140; NaOH, 2.3; MgCl2, 1; KCl, 5.4; CaCl2, 1.0; HEPES, 5; glucose, 10; pH 7.4. To record from myocytes expressing native currents (If) myocytes expressing HCN2 (IHCN2) or HCN4 (IHCN4), [K^+]0 was increased to 10 mmol/L, and MnCl2 (2 mmol/L) and BaCl2 (4 mmol/L) added to the superfusate to eliminate calcium and inward rectifier (IK1) currents. In some experiments CsCl (4 mmol/L) was used extracellularly to identify the pacemaker current as the Cs-sensitive current. The patch pipette solution included (mmol/L): aspartic acid, 130; KOH, 146; NaCl, 10; CaCl2, 2; EGTA-KOH, 5; Mg-ATP, 2; HEPES-KOH, 10, pH 7.2. Where indicated, 10 μmol/L cAMP was included in the pipette solution. A fast solution changing apparatus expedited the experimental protocols. The pipette resistance was typically […]. An Axopatch-200B amplifier and pClampS software (Axon Instruments) were used for acquisition and data analysis. The pacemaker current (If, IHCN2 or IHCN4) was defined as the time-dependent component taken at the end of a hyperpolarizing step to voltages in the range of −35 to −145 mV, while the holding potential was −35 mV unless otherwise indicated. For If and IHCN2 measurements, the hyperpolarizing test pulses were 3 or 6 sec long throughout the voltage range. To accurately record steady-state currents for the more slowly activating IHCN4, the test voltages varied in length from 6 sec at −125 mV to as long as 60 sec at −55 mV. When recording tail currents, the test pulses were followed by an 8-sec voltage step to −125 mV. In all pacemaker current protocols, each episode ended with a pulse to −5 mV for 0.5 sec to insure full deactivation.
The normal cardiac pacemaker beats independently but is regulated by neurotransmitters released from sympathetic and parasympathetic neurons. […]

[2] = target: T1, expressed HCN2 current (Mus musculus, UniProt O88703); assay: Whole-cell voltage clamp: shift of the activation relation of expressed HCN2 current in ventricular myocytes; format: cell-based; conditions: for shift of the voltage dependence of HCN2: saturating cAMP (10 μmol/L) in the pipette
T1 construct: expressed in transfected cells; host or cells: neonatal and adult rat ventricular myocytes in primary culture, infected with adenovirus AdHCN2 (or lipofectin-transfected with pCI-mHCN2)
T1 sequence (O88703 1-863): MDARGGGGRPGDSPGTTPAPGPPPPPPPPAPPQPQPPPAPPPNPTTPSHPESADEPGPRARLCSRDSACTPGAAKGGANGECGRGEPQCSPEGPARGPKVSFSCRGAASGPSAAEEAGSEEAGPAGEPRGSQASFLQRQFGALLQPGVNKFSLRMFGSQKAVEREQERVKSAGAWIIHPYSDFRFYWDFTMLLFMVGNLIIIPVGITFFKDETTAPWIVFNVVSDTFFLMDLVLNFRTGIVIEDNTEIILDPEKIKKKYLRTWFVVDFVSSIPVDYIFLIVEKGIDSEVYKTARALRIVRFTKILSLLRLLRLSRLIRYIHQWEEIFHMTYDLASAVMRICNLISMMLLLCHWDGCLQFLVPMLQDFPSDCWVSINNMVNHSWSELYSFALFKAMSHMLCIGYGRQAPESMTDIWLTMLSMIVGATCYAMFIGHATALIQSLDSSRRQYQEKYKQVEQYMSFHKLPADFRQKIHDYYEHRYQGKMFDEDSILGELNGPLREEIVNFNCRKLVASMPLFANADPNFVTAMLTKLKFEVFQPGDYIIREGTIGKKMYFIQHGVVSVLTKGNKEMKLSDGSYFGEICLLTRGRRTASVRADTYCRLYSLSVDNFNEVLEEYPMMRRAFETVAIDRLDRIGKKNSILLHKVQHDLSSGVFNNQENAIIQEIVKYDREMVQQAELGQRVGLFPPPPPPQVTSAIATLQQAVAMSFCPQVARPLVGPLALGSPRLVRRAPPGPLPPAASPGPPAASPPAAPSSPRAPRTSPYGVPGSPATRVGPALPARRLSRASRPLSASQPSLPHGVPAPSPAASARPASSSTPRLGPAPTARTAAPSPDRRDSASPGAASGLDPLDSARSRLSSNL
Method: The whole-cell voltage clamp technique was employed to record native If or expressed IHCN2 or IHCN4. Action potentials were recorded in current clamp mode, again using a whole cell patch electrode/Experiments were carried out on cells supervised at 35° C. Extracellular solution contained (mmol/L): NaCl, 140; NaOH, 2.3; MgCl2, 1; KCl, 5.4; CaCl2, 1.0; HEPES, 5; glucose, 10; pH 7.4. […] In some experiments CsCl (4 mmol/L) was used extracellularly to identify the pacemaker current as the Cs-sensitive current. […] Where indicated, 10 μmol/L cAMP was included in the pipette solution. A fast solution changing apparatus expedited the experimental protocols. The pipette resistance was typically 1–3 M. An Axopatch-200B amplifier and pClampS software (Axon Instruments) were used for acquisition and data analysis. […] For If and IHCN2 measurements, the hyperpolarizing test pulses were 3 or 6 sec long throughout the voltage range. […] In all pacemaker current protocols, each episode ended with a pulse to −5 mV for 0.5 sec to insure full deactivation.
The activation relation of the native or expressed current can be determined from the steady-state I-V relation.

[3] = system: native pacemaker current; conditions: sinus node; cited from earlier work

| positive shift of the activation curve of expressed HCN2 current ([2]; threshold concentration of isoproterenol, neonatal ventricular myocyte, two-step voltage protocol, one cell) | SMILES | spontaneous rate during drug exposure [1] | effect on heart rate of the culture (in words) [1] | shift of the voltage dependence of HCN2 ([2]; adult myocytes infected with AdHCN2) | shift of the voltage dependence of HCN2 ([2]; neonate myocytes infected with AdHCN2) | threshold concentration on native pacemaker current [3] |
| --- | --- | --- | --- | --- | --- | --- |
|  | CCN(c1ccccc1)c1cc(=NC)n(C)c(C)n1.Cl [ZD-7288] | 78 beats/min | slows the rate |  |  |  |
|  | Nc1ncnc2c1ncn2[C@@H]1O[C@@H]2COP(=O)(O)O[C@H]2[C@H]1O [cAMP, cyclic adenosine monophosphate] |  |  | 14 mV | 17 mV |  |
|  | C[N+](C)(C)CCOC(N)=O [carbachol] | 45 beats/min | decrease in heart rate |  |  |  |
| approximately 5 mV | CC(C)NCC(O)c1ccc(O)c(O)c1 (stereo not shown) [isoproterenol] | 63 beats/min | increase in heart rate |  |  | approximately 1 nM |
